# Data: ChEMBL document CHEMBL1201862, “PubChem BioAssay data set” (2004)
# Activity calls are given as the source filed them.
# What was measured:
# [1] = target: Serine/threonine-protein kinase pim-1 (Homo sapiens, UniProt P11309); assay type: functional
# [2] = target: Cell division cycle 7-related protein kinase (Homo sapiens, UniProt O00311); assay type: functional;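 also: value obtained from a kinome-wide kinase panel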
# [3] = target: Homeodomain-interacting protein kinase 2 (Homo sapiens, UniProt Q9H2X6); assay type: functional;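 also: measured within a kinome-wide kinase profiling panel, HIPK2 being one panel member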
# [4] = target: Interleukin-1 receptor-associated kinase 4 (Homo sapiens, UniProt Q9NWZ3); assay type: functional
# [5] = target: T1, Glycogen synthase kinase-3 beta (Homo sapiens, UniProt P49841); assay type: functional;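 as to Ki: value comes from a broad kinome profiling panel, with GSK3B as the panel member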
# [6] = target: cAMP-dependent protein kinase catalytic subunit alpha (Homo sapiens, UniProt P17612); assay type: functional
# [7] = target: Dual specificity protein kinase CLK4 (Homo sapiens, UniProt Q9HAZ1); assay type: functional
# [8] = target: Mitogen-activated protein kinase kinase kinase kinase 4 (Homo sapiens, UniProt O95819); assay type: functional
# [9] = Luminescence Cell-Based Dose Retest to Confirm Inhibitors of Cancer Stem Cells. [Related pubchem assays (depositor defined):AID2717, AID2721]; assay type: functional; conditions: Homo sapiens
# [10] = A Cell Based Secondary Assay to Explore Cytotoxicity in THP-1 Cells of Compounds that Modulate Mycobacterium tuberculosis in Media Containing Glycerol versus Media without Glycerol (2).; assay type: functional
# [11] = Vero cell cytotoxicity, cytotoxicity control for M. tuberculosis inhibitor project, purified and synthesized samples, set 3 (AID 504684); assay type: functional
# [12] = A Cell Based Secondary Assay to Explore Cytotoxicity in HepG2 Cells of Compounds that Modulate Mycobacterium tuberculosis in Media Containing Glycerol versus Media without Glycerol (2).; assay type: functional
# Caspase-3 = target: T2, Caspase-3 (Homo sapiens, UniProt P42574); assay: inhibition of recombinant caspase-3 activity – biochemical, luminescence, set 2, selectivity assay for SENP protease inhibitor project, SAR follow-up (AID 588599); assay type: functional
# T2 sequence (P42574 whole entry): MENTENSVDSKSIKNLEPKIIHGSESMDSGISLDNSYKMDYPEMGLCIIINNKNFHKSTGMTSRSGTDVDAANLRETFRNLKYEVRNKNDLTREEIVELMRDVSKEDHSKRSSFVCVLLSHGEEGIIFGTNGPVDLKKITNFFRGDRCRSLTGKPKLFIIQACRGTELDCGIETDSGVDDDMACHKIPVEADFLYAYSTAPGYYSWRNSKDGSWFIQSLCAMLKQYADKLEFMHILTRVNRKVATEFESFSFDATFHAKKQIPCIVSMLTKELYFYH
# [13] = target: T3, Sentrin-specific protease 8 (Homo sapiens, UniProt Q96LD8); assay: inhibition of sentrin protease 8 – biochemical, luminescence, set 2, SAR follow-up (AID 588601); assay type: functional
# T3 sequence (Q96LD8 whole entry): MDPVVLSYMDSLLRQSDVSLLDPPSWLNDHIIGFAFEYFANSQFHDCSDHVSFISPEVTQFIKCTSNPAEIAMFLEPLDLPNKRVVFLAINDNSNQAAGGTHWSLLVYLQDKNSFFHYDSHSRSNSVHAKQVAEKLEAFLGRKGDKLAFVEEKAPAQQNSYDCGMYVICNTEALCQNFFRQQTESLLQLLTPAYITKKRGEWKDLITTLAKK
# [14] = target: T4, Sentrin-specific protease 7 (Homo sapiens, UniProt Q9BQF6); assay: inhibition of human SENP7 cleavage activity – biochemical, luminescence, set 2, SAR follow-up (AID 588600); assay type: functional
# T4 sequence (Q9BQF6 whole entry): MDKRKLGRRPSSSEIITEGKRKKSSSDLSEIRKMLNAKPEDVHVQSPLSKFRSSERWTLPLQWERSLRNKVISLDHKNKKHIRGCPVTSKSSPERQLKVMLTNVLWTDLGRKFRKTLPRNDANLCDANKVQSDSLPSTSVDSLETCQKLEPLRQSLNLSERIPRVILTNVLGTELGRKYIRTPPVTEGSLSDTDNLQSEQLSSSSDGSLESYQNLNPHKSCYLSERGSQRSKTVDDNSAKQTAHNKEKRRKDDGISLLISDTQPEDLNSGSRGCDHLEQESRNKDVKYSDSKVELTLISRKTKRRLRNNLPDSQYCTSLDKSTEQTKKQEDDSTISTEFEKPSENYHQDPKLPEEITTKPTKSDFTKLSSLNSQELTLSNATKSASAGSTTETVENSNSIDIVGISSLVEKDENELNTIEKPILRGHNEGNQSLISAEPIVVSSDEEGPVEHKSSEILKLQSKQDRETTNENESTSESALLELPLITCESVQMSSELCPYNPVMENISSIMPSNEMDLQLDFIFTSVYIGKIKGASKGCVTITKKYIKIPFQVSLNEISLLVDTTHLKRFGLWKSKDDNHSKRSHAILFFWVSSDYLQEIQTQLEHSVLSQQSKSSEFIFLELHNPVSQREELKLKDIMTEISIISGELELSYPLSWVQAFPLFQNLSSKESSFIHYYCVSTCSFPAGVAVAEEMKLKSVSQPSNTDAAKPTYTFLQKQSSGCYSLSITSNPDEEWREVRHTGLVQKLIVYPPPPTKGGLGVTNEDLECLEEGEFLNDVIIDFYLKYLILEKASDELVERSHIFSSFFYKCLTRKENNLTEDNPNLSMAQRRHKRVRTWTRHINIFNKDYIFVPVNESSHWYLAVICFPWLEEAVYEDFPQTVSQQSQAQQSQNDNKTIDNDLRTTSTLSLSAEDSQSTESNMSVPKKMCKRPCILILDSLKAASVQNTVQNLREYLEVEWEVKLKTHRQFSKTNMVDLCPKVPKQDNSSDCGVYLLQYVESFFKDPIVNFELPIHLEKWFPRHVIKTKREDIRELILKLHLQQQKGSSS
# [15] = target: T5, Sentrin-specific protease 6 (Homo sapiens, UniProt Q9GZR1); assay: inhibition of human SENP6 catalytic domain – biochemical, luminescence, set 2, SAR follow-up (AID 588598); assay type: functional
# T5 sequence (Q9GZR1 whole entry): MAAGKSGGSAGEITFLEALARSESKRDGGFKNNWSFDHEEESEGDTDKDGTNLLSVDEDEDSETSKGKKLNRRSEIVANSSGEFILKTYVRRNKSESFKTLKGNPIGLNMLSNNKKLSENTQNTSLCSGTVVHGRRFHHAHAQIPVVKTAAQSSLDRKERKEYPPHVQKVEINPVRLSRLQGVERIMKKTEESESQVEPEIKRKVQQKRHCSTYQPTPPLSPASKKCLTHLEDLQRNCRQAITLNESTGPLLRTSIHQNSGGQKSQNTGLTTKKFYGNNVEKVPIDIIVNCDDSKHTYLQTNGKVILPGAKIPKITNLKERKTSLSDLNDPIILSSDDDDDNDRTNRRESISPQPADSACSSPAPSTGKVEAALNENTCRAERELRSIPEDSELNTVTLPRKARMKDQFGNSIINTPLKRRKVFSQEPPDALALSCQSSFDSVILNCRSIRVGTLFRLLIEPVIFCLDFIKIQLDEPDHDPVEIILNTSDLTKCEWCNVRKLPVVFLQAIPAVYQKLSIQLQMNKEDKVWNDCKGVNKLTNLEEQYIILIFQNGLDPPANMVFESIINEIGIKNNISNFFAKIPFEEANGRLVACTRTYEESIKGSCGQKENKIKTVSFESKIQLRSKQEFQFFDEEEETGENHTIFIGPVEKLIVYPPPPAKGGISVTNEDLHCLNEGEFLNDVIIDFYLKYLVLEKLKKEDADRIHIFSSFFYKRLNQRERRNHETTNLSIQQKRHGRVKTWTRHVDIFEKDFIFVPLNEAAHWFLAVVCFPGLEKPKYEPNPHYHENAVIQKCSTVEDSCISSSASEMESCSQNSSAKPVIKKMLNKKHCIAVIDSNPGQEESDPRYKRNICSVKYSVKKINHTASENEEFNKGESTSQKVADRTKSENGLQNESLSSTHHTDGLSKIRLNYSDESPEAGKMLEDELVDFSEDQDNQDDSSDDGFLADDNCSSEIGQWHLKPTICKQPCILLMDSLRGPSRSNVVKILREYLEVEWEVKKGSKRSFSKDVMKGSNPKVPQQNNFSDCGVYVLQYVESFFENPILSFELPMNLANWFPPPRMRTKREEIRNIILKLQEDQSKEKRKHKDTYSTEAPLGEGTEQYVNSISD
# HEK293 = assay: EBV LMP1 TES2 canonical NF-kB signalling blockers – cell-based, HEK293, luciferase, cherry-pick, dose response (AID 588343); assay type: functional; conditions: Homo sapiens
# [16] = target: Latent membrane protein 1 (Human herpesvirus 4 (strain B95-8), UniProt P03230); assay: LMP1 TES1 pathway selectivity over dsRED control – imaging, HEK293T, dual-color eGFP/dsRED, cherry-picks, selectivity assay for LMP1 NF-kB inhibitor project, dose response (AID 588398); assay type: functional, cell-based
# [17] = target: Protein kinase C theta type (Homo sapiens, UniProt Q04759); assay: Navigating the Kinome. Panel member name: PRKCQ; assay type: functional
# [18] = target: Dual specificity mitogen-activated protein kinase kinase 1 (Homo sapiens, UniProt Q02750); assay: Navigating the Kinome. Panel member name: MAP2K1; assay type: functional
# Aurora kinase A = Aurora kinase A (Homo sapiens, UniProt O14965); assay type: functional;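 also: value from the Navigating the Kinome kinase panel profiling, panel entry STK6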
# [19] = target: Vascular endothelial growth factor receptor 2 (Homo sapiens, UniProt P35968); assay type: functional
# [20] = target: Dual specificity tyrosine-phosphorylation-regulated kinase 1B (Homo sapiens, UniProt Q9Y463); assay: Navigating the Kinome. Panel member name: DYRK1B; assay type: functional
# [21] = target: Cyclin-dependent kinase 19 (Homo sapiens, UniProt Q9BWU1); assay: Navigating the Kinome. Panel member name: CDC2L6; assay type: functional
# [22] = target: Cyclin-dependent kinase 9 (Homo sapiens, UniProt P50750); assay type: functional;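 also: value from the CDK9 entry of a kinome-spanning kinase panel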
# [23] = target: Macrophage colony-stimulating factor 1 receptor (Homo sapiens, UniProt P07333); assay type: functional;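 also: value comes from the Navigating the Kinome screening panel, CSF1R member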
# [24] = target: Dual specificity tyrosine-phosphorylation-regulated kinase 1A (Homo sapiens, UniProt Q13627); assay type: functional;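 also: measured against DYRK1A as one member of a broad kinome profiling panel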
# Candida albicans [25] = assay: resistant Candida growth with fluconazole co-treatment – CaCi-8 strain, Alamar Blue, dry powder, set 3, dose response (AID 488905); assay type: functional, organism-based
# Candida albicans [26] = assay: Candida growth inhibition combined with fluconazole – CaCi-2 strain, Alamar Blue, dry powder, set 3, dose response (AID 488907); assay type: functional, organism-based
# [27] = target: Glycogen synthase kinase-3 alpha (Homo sapiens, UniProt P49840); assay: Inhibition of Human GSK-3 alpha Activity Measured in Biochemical System Using Microfluidics - 2063-06_Inhibitor_Dose_DryPowder_Activity_Set2. [Related pubchem assays (depositor defined):AID2709]
# [28] = target: T1, Glycogen synthase kinase-3 beta; assay: Inhibition of Human GSK-3 beta Activity Measured in Biochemical System Using Microfluidics - 2063-05_Inhibitor_Dose_DryPowder_Activity_Set2. [Related pubchem assays (depositor defined):AID2709]
# INS1 [29] = assay: beta-cell survival under cytokine stress – INS-1E, ATP luminescence, dry powder, dose response (AID 488844); assay type: functional, cell-based; conditions: Rattus norvegicus
# INS1 [30] = assay: suppression of cytokine-induced beta-cell apoptosis – INS-1E, caspase luminescence, dry powder, beta-cell apoptosis inhibitor project, dose response (AID 488848); assay type: functional, cell-based; conditions: Rattus norvegicus
# INS1 [31] = assay: suppression of NO production in INS-1E cells – cell-based, Griess absorbance, dry powder, set 2, dose response (AID 488868); assay type: functional; conditions: Rattus norvegicus
# INS1 [32] = assay: INS-1E mitochondrial potential rescue under cytokines – cell-based, JC-1 fluorescence ratio, dry powder, dose response (AID 488931); assay type: functional; conditions: Rattus norvegicus
# [33] = target: Mitogen-activated protein kinase 8 (Homo sapiens, UniProt P45983); assay type: functional;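 also: value comes from one member of a kinome-wide kinase profiling panel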
# [34] = target: Cyclin-dependent kinase 5 (Homo sapiens, UniProt Q00535); assay type: functional;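 also: CDK5 measured as one member of a kinase profiling panel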
# [35] = target: Platelet-derived growth factor receptor alpha (Homo sapiens, UniProt P16234); assay: Navigating the Kinome. Panel member name: PDGFRA; assay type: functional
# [36] = target: Proto-oncogene tyrosine-protein kinase receptor Ret (Homo sapiens, UniProt P07949); assay type: functional;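 also: measured within a kinome-wide profiling panel, RET as the panel member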
# [37] = target: Tyrosine-protein kinase receptor TYRO3 (Homo sapiens, UniProt Q06418); assay type: functional;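 also: TYRO3 value obtained as one member of a kinome-wide profiling panel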
# Sequence of Dual specificity protein kinase CLK4 (Q9HAZ1 whole entry): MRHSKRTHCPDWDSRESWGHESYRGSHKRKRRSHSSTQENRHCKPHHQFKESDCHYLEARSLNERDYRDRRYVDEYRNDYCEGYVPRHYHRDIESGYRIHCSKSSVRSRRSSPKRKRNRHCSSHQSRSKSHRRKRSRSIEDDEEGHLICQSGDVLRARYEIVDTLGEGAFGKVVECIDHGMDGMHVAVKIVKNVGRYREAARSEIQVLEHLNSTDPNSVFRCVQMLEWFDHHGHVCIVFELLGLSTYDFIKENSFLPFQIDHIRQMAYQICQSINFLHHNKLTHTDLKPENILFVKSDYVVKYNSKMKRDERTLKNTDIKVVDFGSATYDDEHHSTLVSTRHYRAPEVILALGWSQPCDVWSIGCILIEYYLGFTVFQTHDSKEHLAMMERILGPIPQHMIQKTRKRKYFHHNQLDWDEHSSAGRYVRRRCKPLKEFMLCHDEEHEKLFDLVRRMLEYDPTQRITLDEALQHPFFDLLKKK
# T1 sequence (P49841 whole entry): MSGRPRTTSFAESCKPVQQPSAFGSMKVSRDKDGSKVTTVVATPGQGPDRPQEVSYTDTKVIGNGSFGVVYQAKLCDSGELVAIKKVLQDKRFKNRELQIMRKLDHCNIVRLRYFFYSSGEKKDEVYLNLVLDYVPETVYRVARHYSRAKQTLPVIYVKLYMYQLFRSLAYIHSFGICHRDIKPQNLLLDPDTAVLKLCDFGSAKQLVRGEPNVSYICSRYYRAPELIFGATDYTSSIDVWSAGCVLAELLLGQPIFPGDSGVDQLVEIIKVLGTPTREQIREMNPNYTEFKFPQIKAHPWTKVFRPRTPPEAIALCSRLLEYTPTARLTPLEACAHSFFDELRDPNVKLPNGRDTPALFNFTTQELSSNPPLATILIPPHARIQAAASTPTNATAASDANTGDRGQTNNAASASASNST
# Sequence of Dual specificity tyrosine-phosphorylation-regulated kinase 1B (Q9Y463 whole entry): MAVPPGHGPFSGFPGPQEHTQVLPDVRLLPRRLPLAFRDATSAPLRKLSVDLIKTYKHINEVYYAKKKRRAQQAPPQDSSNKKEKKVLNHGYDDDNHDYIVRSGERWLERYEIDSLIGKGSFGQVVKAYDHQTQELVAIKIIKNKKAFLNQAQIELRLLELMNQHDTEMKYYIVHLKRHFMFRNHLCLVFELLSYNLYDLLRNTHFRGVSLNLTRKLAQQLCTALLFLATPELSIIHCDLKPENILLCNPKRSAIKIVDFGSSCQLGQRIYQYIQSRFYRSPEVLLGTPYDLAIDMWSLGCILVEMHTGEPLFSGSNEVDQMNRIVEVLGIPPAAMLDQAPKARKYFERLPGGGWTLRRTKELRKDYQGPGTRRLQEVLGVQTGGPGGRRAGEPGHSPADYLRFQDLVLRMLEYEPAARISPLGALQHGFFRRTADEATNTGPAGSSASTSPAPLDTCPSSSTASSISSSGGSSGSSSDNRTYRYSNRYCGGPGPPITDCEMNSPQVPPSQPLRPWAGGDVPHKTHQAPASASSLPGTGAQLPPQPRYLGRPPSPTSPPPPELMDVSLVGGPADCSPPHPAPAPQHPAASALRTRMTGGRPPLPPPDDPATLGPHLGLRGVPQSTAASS
# Sequence of Cyclin-dependent kinase 5 (Q00535 whole entry): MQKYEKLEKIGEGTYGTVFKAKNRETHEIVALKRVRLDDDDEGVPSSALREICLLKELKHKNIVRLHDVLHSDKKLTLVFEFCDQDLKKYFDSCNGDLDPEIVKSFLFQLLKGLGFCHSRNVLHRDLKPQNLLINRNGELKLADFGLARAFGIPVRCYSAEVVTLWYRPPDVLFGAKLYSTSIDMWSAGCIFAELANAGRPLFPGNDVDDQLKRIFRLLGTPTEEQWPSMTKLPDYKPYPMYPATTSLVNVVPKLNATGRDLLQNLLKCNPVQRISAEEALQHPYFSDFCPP
# Sequence of Proto-oncogene tyrosine-protein kinase receptor Ret (P07949 whole entry): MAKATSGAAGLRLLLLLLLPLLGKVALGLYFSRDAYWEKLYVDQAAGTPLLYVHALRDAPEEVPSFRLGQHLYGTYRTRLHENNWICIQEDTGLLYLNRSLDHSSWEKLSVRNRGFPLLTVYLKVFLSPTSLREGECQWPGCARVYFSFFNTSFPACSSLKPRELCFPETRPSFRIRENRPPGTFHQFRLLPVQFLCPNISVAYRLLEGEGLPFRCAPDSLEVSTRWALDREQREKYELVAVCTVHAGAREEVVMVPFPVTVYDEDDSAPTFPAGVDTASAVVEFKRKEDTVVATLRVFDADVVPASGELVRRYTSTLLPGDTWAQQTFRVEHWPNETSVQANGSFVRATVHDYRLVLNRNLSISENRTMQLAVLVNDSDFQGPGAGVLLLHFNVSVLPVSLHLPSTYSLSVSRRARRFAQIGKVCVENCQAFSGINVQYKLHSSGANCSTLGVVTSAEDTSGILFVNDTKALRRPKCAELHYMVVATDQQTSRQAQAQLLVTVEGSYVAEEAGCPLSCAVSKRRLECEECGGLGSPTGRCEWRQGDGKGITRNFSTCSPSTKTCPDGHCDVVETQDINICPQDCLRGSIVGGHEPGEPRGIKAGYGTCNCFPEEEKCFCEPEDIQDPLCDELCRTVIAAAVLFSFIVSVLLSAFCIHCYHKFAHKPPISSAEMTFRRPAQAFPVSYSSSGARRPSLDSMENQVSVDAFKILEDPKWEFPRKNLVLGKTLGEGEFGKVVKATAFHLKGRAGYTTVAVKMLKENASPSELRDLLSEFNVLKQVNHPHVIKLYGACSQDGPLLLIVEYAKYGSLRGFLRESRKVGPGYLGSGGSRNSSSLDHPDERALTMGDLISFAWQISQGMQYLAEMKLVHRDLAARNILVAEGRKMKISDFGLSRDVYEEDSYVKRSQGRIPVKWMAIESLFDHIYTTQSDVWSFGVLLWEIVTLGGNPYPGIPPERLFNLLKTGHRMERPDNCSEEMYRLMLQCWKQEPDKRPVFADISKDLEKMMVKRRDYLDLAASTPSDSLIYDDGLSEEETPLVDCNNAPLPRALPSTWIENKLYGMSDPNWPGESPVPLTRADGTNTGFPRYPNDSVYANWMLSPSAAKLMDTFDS
# Sequence of Vascular endothelial growth factor receptor 2 (P35968 whole entry): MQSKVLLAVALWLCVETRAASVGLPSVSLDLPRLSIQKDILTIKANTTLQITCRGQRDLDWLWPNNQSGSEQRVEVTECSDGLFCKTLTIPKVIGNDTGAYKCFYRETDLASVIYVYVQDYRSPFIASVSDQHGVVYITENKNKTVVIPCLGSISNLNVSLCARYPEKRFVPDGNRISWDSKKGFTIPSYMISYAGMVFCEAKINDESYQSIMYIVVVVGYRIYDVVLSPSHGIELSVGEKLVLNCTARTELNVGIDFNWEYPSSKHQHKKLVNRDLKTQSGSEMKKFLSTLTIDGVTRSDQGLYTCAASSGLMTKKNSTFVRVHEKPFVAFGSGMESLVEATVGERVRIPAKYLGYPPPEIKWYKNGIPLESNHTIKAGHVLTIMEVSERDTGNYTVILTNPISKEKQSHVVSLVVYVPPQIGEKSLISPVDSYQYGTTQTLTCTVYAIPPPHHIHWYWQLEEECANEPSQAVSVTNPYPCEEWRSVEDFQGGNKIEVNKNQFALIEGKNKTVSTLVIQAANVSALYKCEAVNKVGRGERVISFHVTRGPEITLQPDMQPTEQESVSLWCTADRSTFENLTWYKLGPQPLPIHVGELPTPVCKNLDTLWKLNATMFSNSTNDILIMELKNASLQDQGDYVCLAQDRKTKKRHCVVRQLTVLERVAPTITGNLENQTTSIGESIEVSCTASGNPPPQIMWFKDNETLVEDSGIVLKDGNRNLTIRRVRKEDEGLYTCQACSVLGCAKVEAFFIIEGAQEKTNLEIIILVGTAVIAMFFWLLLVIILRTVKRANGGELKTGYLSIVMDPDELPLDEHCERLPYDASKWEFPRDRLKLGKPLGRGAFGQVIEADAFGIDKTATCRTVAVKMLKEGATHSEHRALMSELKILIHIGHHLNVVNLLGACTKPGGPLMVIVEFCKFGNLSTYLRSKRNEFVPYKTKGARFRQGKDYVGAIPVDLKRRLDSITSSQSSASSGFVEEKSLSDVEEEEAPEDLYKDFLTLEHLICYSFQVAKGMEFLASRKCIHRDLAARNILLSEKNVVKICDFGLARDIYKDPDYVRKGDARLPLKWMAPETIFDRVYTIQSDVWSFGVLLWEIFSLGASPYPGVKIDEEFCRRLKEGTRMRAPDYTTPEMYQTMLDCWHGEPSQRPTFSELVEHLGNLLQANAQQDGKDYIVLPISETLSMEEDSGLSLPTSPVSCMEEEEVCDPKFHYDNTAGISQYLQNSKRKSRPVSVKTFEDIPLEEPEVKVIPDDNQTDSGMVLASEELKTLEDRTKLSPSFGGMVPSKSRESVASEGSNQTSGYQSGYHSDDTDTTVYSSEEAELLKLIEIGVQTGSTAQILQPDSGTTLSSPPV
# Sequence of Dual specificity mitogen-activated protein kinase kinase 1 (Q02750 whole entry): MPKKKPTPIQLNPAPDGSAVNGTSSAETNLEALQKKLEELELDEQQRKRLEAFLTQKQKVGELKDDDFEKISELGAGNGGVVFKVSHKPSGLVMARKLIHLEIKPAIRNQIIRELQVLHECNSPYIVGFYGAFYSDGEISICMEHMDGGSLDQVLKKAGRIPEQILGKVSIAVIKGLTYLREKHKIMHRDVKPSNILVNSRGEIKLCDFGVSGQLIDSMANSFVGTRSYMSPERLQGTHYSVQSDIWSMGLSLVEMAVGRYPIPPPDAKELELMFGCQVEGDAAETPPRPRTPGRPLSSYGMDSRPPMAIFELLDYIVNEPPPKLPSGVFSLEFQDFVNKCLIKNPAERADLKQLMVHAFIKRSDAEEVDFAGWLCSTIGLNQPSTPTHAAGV
# Sequence of Serine/threonine-protein kinase pim-1 (P11309 whole entry): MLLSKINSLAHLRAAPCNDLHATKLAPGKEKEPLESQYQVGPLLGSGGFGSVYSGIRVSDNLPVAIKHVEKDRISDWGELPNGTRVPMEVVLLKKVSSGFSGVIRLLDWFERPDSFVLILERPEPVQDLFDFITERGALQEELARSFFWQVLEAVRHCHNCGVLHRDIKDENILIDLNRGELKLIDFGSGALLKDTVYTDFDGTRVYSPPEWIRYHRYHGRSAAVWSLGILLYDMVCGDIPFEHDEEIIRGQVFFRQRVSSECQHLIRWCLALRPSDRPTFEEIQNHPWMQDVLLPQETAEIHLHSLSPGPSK
smiles,measurement,setting,value
CCCCNc1cc(-c2ccncc2)cc2[nH]nc(N)c12,Ki,[1],2.51 µM (active)
same,Ki,[2],0.0126 µM (active)
same,Ki,[3],0.398 µM (active)
same,Ki,[4],0.0794 µM (active)
same,Ki,[5],0.398 µM (active)
same,Ki,[6],0.398 µM (active)
same,Ki,[7],0.00316 µM (active)
same,Ki,[8],0.316 µM (active)
S=c1[nH]cnc2nc[nH]c12 [MERCAPTOPURINE],AC50,[9],0.561 µM (active)
same,CC50,[10],30.4 µM (active)
same,CC50,[11],76.5 µM (active)
same,CC50,[12],5.55 µM (active)
COc1ccc(Br)c(C(=O)Nc2nc3ccc(C)cc3s2)c1,IC50,Caspase-3,3.57 µM (active)
same,IC50,[13],1.78 µM (active)
same,IC50,[14],2.13 µM (active)
same,IC50,[15],2.02 µM (active)
c1ccc(C2c3[nH]c4ccccc4c3CCN2Cc2cccn2-c2ccccn2)nc1 (centres undefined),AC50,HEK293,110 µM (active)
same,AC50,[16],29.8 µM (active)
NC(=O)c1cnn2c(-c3ccccc3)ccnc12,Ki,[17],> 100 µM (inactive)
same,Ki,[18],50.1 µM (active)
same,Ki,Aurora kinase A,> 63.1 µM (inactive)
same,Ki,[19],> 100 µM (inactive)
same,Ki,[20],15.8 µM (active)
same,Ki,[21],> 100 µM (inactive)
same,Ki,[22],> 63.1 µM (inactive)
same,Ki,[6],> 50.1 µM (inactive)
same,Ki,[7],3.98 µM (active)
same,Ki,[23],> 100 µM (inactive)
same,Ki,[24],> 79.4 µM (inactive)
O=C(c1cccc(Cl)c1)N1CCN(c2ccccn2)CC1,AC50,Candida albicans [25],< 0.195 µM (active)
same,AC50,Candida albicans [26],0.073 µM (active)
CN(C)Cc1c(C(=O)N/N=C/c2ccncc2)nnn1-c1nonc1N,AC50,[27],0.597 µM (active)
same,AC50,[28],0.255 µM (active)
Cc1ccc(S(=O)(=O)N(C)C[C@@H]2Oc3c(NC(=O)Nc4ccc(F)cc4)cccc3C(=O)N([C@@H](C)CO)C[C@H]2C)cc1,AC50,INS1 [29],28.7 µM (active)
same,AC50,INS1 [30],27.4 µM (active)
same,AC50,INS1 [31],41 µM (active)
same,AC50,INS1 [32],83.3 µM (active)
Cc1[nH]c(=O)oc(=O)c1-c1ccccc1,Ki,[33],79.4 µM (active)
same,Ki,[34],63.1 µM (active)
same,Ki,[35],63.1 µM (active)
same,Ki,[7],20 µM (active)
O=C1NS(=O)(=O)c2cccc(Cl)c21,Ki,[36],100 µM (active)
same,Ki,[37],31.6 µM (active)
same,Ki,[20],50.1 µM (active)
